{"source": "patent US20090042188A1", "about": "“Agent for Differentiating Hematopoietic Stem Cell Into Natural Killer Cell Comprising Vdup1 Protein or Gene Encoding the Same, and a Method of Differentiating Hematopoietic Stem Cell Into Natural Killer Cell Using Thereof” (Korea Research Institute of Bioscience and Biotechnology, priority 2005, published 2009)", "key": {"Yac-1": {"system": "Yac-1", "assay": "51Cr release assay of NK cells differentiated in vitro under vitamin D3", "format": "cell-based, mouse", "details": "10 nM vitamin D3 during differentiation, compared with vitamin D3 non-treating group (FIG. 16)", "description": "FIG. 16 is a graph showing the cytotoxicity, investigated by ^51Cr release assay, of NK cells for a target cell ‘Yac-1’ developed under the treatment of low concentration of vitamin D3 (10 nM). E/T means the ratio of effective cells to target cells.\n(§1) NK cells, differentiated in vitro or isolated from spleen, were treated with IL-2 (10 u/ml), followed by culture for 24 hours. After being washed, NK cells were plated, according to ratios of effector cells to target cells, into a 96 well plate (well round bottom plate, Falcon, USA) containing target cells (^51Cr-labeled Yac-1 cells, 10^4/well), followed by further culture for 4 hours. Upon completion of the culture, radioactivity of 100 ul of supernatant was measured by γ counter (FIG. 9).\nTo investigate the effect of vitamin D3, known to regulate VDUP1, on NK cell development, 1,25-dihydroxy vitamin D(3) was treated to each stage of differentiation from mouse HSCs into mNK cells via pNK. The cells were matured by the culture in the presence of OP9 and IL-15, then FACS analysis (FIG. 15) and ^51Cr release assay (FIG. 16) were performed."}, "mature NK cells": {"system": "mature NK cells", "assay": "51Cr release assay of mature spleen NK cells treated with IL-2 and vitamin D3", "format": "cell-based", "details": "mature NK cells from wild type mouse spleen, vitamin D3 together with IL-2 for 24 hours (FIG. 17)", "description": "FIG. 17 is a graph showing the cytotoxicity of mature NK cells, separated from spleen of a wild type mouse, and then treated with IL-2 and/or vitamin D3 for 24 hours, detected by ^51Cr release assay.\nas §1\nFurther, mature NK cells were isolated from spleen of a wild type mouse. The cells were treated with vitamin D3 together with IL-2 for 24 hours, followed by ^51Cr release assay (FIG. 17)."}, "mouse HSCs": {"system": "mouse HSCs", "assay": "NK cell differentiation from HSCs under vitamin D3 treatment, FACS analysis of NK1.1-positive cells", "format": "cell-based", "details": "vitamin D3 treated at each stage HSC to pNK to mNK; culture with OP9 and IL-15; FACS (FIG. 15)", "description": "FIG. 15 is a set of graphs showing the result of FACS analysis with NK cell group positive for NK1.1. Vitamin D3 was treated during the whole procedure of differentiation from HSCs of a wild type mouse into mNK via pNK, which was progressed by the cell culture in the presence of OP9 and IL-15, resulting in the confirmation of NK cell group positive for NK1.1.\nHSCs isolated from bone marrow in the above Example 1 were inoculated into 6-well plate (Falcon, USA) using a complete RPMI medium supplemented with mouse SCF (30 ng/ ? , BioSource, Camarillo, Calif.), mouse Flt3L (50 ng/ ? , PeproTech, Rocky Hill, N.J.), mouse IL-7 (0.5 ng/ ? , PeproTech), indomethacin (2 g/ ? , Sigma), gentamycin (20 g/ ? ) and 10% fetal bovine serum, at the concentration of 2×10^6 cells/well. The cells were cultured in a 37° C., 5% CO2 incubator for 6 days. […] The purity of the pNK cells was determined by FACS, confirming over 92% purity.\nTo generate mature NK cells (referred as “mNK cells” hereinafter), collected HSCs were cultured with or without OP9 stromal cells (Science, 265: 1098-1101, 1994) in the presence of mouse IL-15 (20 ng/ ? , PeproTech, USA). […] The purity of the mature NK cells was determined by flow cytometry (FACS) using anti-CD122, NK1.1, DX-5 and NK cell receptor antibodies. […]"}}, "data": [{"compound": "C=C1/C(=C\\C=C2/CCC[C@]3(C)[C@@H]([C@H](C)CCCC(C)(C)O)CC[C@@H]23)C[C@@H](O)C[C@@H]1O", "note": "[vitamin D3, 1,25-dihydroxy vitamin D(3)]", "values": [{"measurement": "NK mediated cytotoxicity for Yac-1", "setting": "Yac-1", "value": "increased"}, {"measurement": "NK mediated cytotoxicity", "setting": "mature NK cells", "value": "increased"}, {"measurement": "NK cell population (NK1.1 positive)", "setting": "mouse HSCs", "value": "increased by vitamin D3 in a dose dependent manner"}]}]}
